From patent publication US20230168259A1, “METHOD FOR PREDICTING THE COURSE OF A VIRAL DISEASE” (Leibniz-Institut für Virologie, priority 2020, published 2023) come the findings set out here.

Structures are written as SMILES.

In one assay the test system is MIP-1β. The arrangement: species or system Syrian golden hamster. Conditions: hamster, in vivo, ip.
The subject of another assay is MIP-1α. On the set-up: species or system Syrian golden hamster. Conditions: hamster, in vivo, ip.
A further assay deals with SARS-CoV-2. Kind of assay: Virus titer (plaque assay on VeroE6 cells) in organs of SARS-CoV-2 infected hamsters treated with letrozole or placebo. The note with it: 0.18 mg kg-1 i.p. daily, 3 d p.i., compared to placebo. Format: in vivo, Syrian golden hamster.
Where [1] appears, read: SARS-CoV-2-infected female hamsters.
The mark [2] stands for this setting: SARS-CoV-2-infected male hamsters.

`N#Cc1ccc(C(c2ccc(C#N)cc2)n2cncn2)cc1` [letrozole]: the “expression level of MIP-1β in lungs” value with MIP-1β was “lower”. The “expression level of MIP-1α in lungs” value with MIP-1α is given as “lower”. Besides, in the assay on SARS-CoV-2 (setting [1]), the “virus titer in brain” value is reported as “lower virus titers”, the “virus titer in lungs” value is listed as “lower virus titers” and the “virus titer in plasma” value was “lower virus titers”. Further, in the assay with SARS-CoV-2 (setting [2]), the “virus titer in brain” value is “lower virus titers”, the “virus titer in lungs” value is on record as “lower virus titers” and the “virus titer in testis” value was “lower virus titers”.
